Test results published in patent US7091202B2, “4-arylspirocycloalkyl-2-aminopyrimidine carboxamide KCNQ potassium channel modulators” (Bristol-Myers Squibb Company, priority 2004, dated 2006).

The compounds below were run against T1, hQ23 (HEK-293 cell line stably transfected with one of the members of the KCNQ family) (Homo sapiens, UniProt O43525+O43526) (assay: Thallium flux assay for KCNQ channel blockers (FLIPR, BTC dye)). Conditions: hQ23 cells, thallium flux.
T1 construct: expressed in transfected cells; host or cells: HEK-293, stably transfected
Assay type: cell-based
Method in brief: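 HEK-293 cells stably expressing a KCNQ member, loaded with BTC-AM (2 μM) in chloride-free buffer, pH 7.3; compounds added at 1% DMSO, then Tl2SO4 stimulus on FLIPR (488/540 nm, 60 s). Minimal active concentration set at ≥4 SD above negative control; IC50 from 10-point 1:3 series, single-site logistic fit versus the positive-control blocker.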

T1 sequence (O43526 whole entry): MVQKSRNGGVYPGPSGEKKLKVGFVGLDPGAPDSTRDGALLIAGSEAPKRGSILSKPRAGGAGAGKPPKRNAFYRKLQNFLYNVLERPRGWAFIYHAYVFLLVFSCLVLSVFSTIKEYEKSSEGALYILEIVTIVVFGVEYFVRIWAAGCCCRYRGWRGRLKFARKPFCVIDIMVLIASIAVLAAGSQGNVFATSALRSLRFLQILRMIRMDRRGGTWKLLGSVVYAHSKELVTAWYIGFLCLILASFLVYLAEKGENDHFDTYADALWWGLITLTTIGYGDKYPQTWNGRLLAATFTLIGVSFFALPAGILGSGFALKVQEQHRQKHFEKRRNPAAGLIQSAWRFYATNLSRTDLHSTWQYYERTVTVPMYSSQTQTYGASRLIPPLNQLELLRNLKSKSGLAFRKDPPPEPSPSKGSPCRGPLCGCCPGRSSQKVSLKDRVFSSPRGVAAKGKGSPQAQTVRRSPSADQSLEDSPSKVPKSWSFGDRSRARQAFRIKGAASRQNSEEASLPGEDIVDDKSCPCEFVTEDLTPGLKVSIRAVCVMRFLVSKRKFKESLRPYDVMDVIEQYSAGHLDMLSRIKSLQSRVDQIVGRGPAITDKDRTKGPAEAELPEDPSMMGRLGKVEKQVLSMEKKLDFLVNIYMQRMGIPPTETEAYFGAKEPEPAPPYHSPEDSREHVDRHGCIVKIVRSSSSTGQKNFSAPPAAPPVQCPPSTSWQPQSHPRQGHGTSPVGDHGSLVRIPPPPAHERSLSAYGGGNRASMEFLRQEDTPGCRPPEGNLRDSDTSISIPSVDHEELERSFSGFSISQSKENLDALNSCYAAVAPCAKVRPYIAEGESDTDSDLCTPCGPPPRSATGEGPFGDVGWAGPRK
T1 sequence (O43525 whole entry): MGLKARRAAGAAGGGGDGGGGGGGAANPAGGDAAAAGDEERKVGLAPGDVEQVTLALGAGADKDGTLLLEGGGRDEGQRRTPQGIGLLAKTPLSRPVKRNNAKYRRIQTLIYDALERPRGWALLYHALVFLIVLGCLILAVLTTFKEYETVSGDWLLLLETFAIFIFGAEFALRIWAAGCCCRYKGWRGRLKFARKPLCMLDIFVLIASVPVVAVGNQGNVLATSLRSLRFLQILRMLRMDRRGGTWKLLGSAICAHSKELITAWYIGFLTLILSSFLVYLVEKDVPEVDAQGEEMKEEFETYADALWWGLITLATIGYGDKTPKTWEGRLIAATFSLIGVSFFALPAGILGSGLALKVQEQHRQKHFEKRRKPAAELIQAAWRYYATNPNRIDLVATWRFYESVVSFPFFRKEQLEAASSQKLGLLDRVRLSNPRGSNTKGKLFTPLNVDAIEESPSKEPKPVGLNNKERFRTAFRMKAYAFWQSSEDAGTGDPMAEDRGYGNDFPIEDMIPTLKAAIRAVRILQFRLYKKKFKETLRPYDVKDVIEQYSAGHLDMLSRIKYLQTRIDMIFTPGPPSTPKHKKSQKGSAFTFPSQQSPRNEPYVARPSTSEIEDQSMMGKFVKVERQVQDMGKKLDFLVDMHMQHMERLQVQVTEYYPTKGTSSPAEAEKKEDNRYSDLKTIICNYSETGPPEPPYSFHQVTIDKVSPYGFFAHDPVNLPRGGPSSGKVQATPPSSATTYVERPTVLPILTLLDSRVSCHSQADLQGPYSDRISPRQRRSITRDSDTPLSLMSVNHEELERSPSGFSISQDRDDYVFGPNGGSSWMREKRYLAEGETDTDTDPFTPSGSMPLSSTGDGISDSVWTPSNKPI

SMILES | EC50
O=C(NCc1cccc2ccccc12)c1cnc(NC2CC2)nc1C1(c2ccc(Cl)cc2)CCCC1 [Example 165, 5-pyrimidinecarboxamide, 4-[1-(4-chlorophenyl)cyclopentyl]-2-(cyclopropylamino)-N-(1-naphthalenylmethyl)-] | 0.63 µM
O=C(NCc1cccc2ccccc12)c1cnc(N2CCCC2)nc1C1(c2ccc(Cl)cc2)CCCC1 [Example 167, 5-pyrimidinecarboxamide, 4-[1-(4-chlorophenyl)cyclopentyl]-N-(1-naphthalenylmethyl)-2-(1-pyrrolidinyl)-] | 0.142 µM
CN1CCN(c2ncc(C(=O)NCc3cccc4ccccc34)c(C3(c4ccc(Cl)cc4)CCCC3)n2)CC1 [Example 168, 5-pyrimidinecarboxamide, 4-[1-(4-chlorophenyl)cyclopentyl]-2-(4-methyl-1-piperazinyl)-N-(1-naphthalenylmethyl)-] | 0.497 µM
CCC(C)Nc1ncc(C(=O)NCc2cccc3ccccc23)c(C2(c3ccc(Cl)cc3)CCCC2)n1 (stereo not drawn) [Example 171, 5-pyrimidinecarboxamide, 4-[1-(4-chlorophenyl)cyclopentyl]-2-[(1-methylpropyl)amino]-N-(1-naphthalenylmethyl)-] | 0.158 µM
O=C(NCc1cccc2ccccc12)c1cnc(NC2CCCC2)nc1C1(c2ccc(Cl)cc2)CCCC1 [Example 172, 5-pyrimidinecarboxamide, 4-[1-(4-chlorophenyl)cyclopentyl]-2-(cyclopentylamino)-N-(1-naphthalenylmethyl)-] | 0.373 µM
CN1CCN(c2ncc(C(=O)NCc3ccc(Cl)c(Cl)c3)c(C3(c4ccc(Cl)cc4)CCCC3)n2)CC1 [Example 173, 5-pyrimidinecarboxamide, 4-[1-(4-chlorophenyl)cyclopentyl]-N-[(3,4-dichlorophenyl)methyl]-2-(4-methyl-1-piperazinyl)-] | 0.82 µM
O=C(NCc1ccc(Cl)cc1Cl)c1cnc(NC2CC2)nc1C1(c2ccc(Cl)cc2)CCCC1 [Example 176, 5-pyrimidinecarboxamide, 4-[1-(4-chlorophenyl)cyclopentyl]-2-(cyclopropylamino)-N-[(2,4-dichlorophenyl)methyl]-] | 0.196 µM
CC1CCC(Nc2ncc(C(=O)NCc3ccc(Cl)cc3Cl)c(C3(c4ccc(Cl)cc4)CCCC3)n2)CC1 (stereo not drawn) [Example 177, 5-pyrimidinecarboxamide, 4-[1-(4-chlorophenyl)cyclopentyl]-N-[(2,4-dichlorophenyl)methyl]-2-[(4-methylcyclohexyl)amino]-] | 0.055 µM
O=C(NCc1ccc(Cl)cc1Cl)c1cnc(N2CCCC2)nc1C1(c2ccc(Cl)cc2)CCCC1 [Example 178, 5-pyrimidinecarboxamide, 4-[1-(4-chlorophenyl)cyclopentyl]-N-[(2,4-dichlorophenyl)methyl]-2-(1-pyrrolidinyl)-] | 0.074 µM
CN1CCN(c2ncc(C(=O)NCc3ccc(Cl)cc3Cl)c(C3(c4ccc(Cl)cc4)CCCC3)n2)CC1 [Example 179, 5-pyrimidinecarboxamide, 4-[1-(4-chlorophenyl)cyclopentyl]-N-[(2,4-dichlorophenyl)methyl]-2-(4-methyl-1-piperazinyl)-] | 0.535 µM
CN1CCC(N(C)c2ncc(C(=O)NCc3ccc(Cl)cc3Cl)c(C3(c4ccc(Cl)cc4)CCCC3)n2)CC1 [Example 182, 5-pyrimidinecarboxamide, 4-[1-(4-chlorophenyl)cyclopentyl]-N-[(2,4-dichlorophenyl)methyl]-2-[methyl(1-methyl-4-piperidinyl)amino]-] | 0.067 µM
CN(C)CCNc1ncc(C(=O)NCc2ccc(Cl)cc2Cl)c(C2(c3ccc(Cl)cc3)CCCC2)n1 [Example 184, 5-pyrimidinecarboxamide, 4-[1-(4-chlorophenyl)cyclopentyl]-N-[(2,4-dichlorophenyl)methyl]-2-[[2-(dimethylamino)ethyl]amino]-] | 0.709 µM
CC1CCC(Nc2ncc(C(=O)NCc3ccc(F)cc3F)c(C3(c4ccc(Cl)cc4)CCCC3)n2)CC1 (stereo not drawn) [Example 186, 5-pyrimidinecarboxamide, 4-[1-(4-chlorophenyl)cyclopentyl]-N-[(2,4-difluorophenyl)methyl]-2-[(4-methylcyclohexyl)amino]-] | 0.128 µM
CC1CCCN(c2ncc(C(=O)NCc3ccc(F)cc3F)c(C3(c4ccc(Cl)cc4)CCCC3)n2)C1 (stereo not drawn) [Example 187, 5-pyrimidinecarboxamide, 4-[1-(4-chlorophenyl)cyclopentyl]-N-[(2,4-difluorophenyl)methyl]-2-(3-methyl-1-piperidinyl)-] | 0.095 µM
CC1CCN(c2ncc(C(=O)NCc3ccc(F)cc3F)c(C3(c4ccc(Cl)cc4)CCCC3)n2)CC1 [Example 188, 5-pyrimidinecarboxamide, 4-[1-(4-chlorophenyl)cyclopentyl]-N-[(2,4-difluorophenyl)methyl]-2-(4-methyl-1-piperidinyl)-] | 0.016 µM
O=C(NCc1ccc(F)cc1F)c1cnc(NC2CCCC2)nc1C1(c2ccc(Cl)cc2)CCCC1 [Example 189, 5-pyrimidinecarboxamide, 4-[1-(4-chlorophenyl)cyclopentyl]-2-(cyclopentylamino)-N-[(2,4-difluorophenyl)methyl]-] | 0.34 µM
CC1CCC(Nc2ncc(C(=O)NCc3cc(F)cc(C(F)(F)F)c3)c(C3(c4ccc(Cl)cc4)CCCC3)n2)CC1 (stereo not drawn) [Example 190, 5-pyrimidinecarboxamide, 4-[1-(4-chlorophenyl)cyclopentyl]-N-[[3-fluoro-5-(trifluoromethyl)phenyl]methyl]-2-[(4-methylcyclohexyl)amino]-] | 0.163 µM
O=C(NCc1cc(F)cc(C(F)(F)F)c1)c1cnc(N2CCCC2)nc1C1(c2ccc(Cl)cc2)CCCC1 [Example 191, 5-pyrimidinecarboxamide, 4-[1-(4-chlorophenyl)cyclopentyl]-N-[[3-fluoro-5-(trifluoromethyl)phenyl]methyl]-2-(1-pyrrolidinyl)-] | 0.032 µM
CN1CCC(N(C)c2ncc(C(=O)NCc3cc(F)cc(C(F)(F)F)c3)c(C3(c4ccc(Cl)cc4)CCCC3)n2)CC1 [Example 194, 5-pyrimidinecarboxamide, 4-[1-(4-chlorophenyl)cyclopentyl]-N-[[3-fluoro-5-(trifluoromethyl)phenyl]methyl]-2-[methyl(1-methyl-4-piperidinyl)amino]-] | 0.13 µM
CN(C)CCNc1ncc(C(=O)NCc2cc(F)cc(C(F)(F)F)c2)c(C2(c3ccc(Cl)cc3)CCCC2)n1 [Example 195, 5-pyrimidinecarboxamide, 4-[1-(4-chlorophenyl)cyclopentyl]-2-[[2-(dimethylamino)ethyl]amino]-N-[[3-fluoro-5-(trifluoromethyl)phenyl]methyl]-] | 0.634 µM

Further compounds by falling EC50, results first:

EC50 | SMILES
0.016 µM | CC1CCC(Nc2ncc(C(=O)NCc3cccc4ccccc34)c(C3(c4ccc(Cl)cc4)CCCC3)n2)CC1 (stereo not drawn) [Example 166, 5-pyrimidinecarboxamide, 4-[1-(4-chlorophenyl)cyclopentyl]-2-[(4-methylcyclohexyl)amino]-N-(1-naphthalenylmethyl)-]
0.012 µM | CC1CCN(c2ncc(C(=O)NCc3cc(F)cc(C(F)(F)F)c3)c(C3(c4ccc(Cl)cc4)CCCC3)n2)CC1 [Example 193, 5-pyrimidinecarboxamide, 4-[1-(4-chlorophenyl)cyclopentyl]-N-[[3-fluoro-5-(trifluoromethyl)phenyl]methyl]-2-(4-methyl-1-piperidinyl)-]
0.01 µM | CC1CCCN(c2ncc(C(=O)NCc3cccc4ccccc34)c(C3(c4ccc(Cl)cc4)CCCC3)n2)C1 (stereo not drawn) [Example 169, 5-pyrimidinecarboxamide, 4-[1-(4-chlorophenyl)cyclopentyl]-2-(3-methyl-1-piperidinyl)-N-(1-naphthalenylmethyl)-]
0.01 µM | CC1CCN(c2ncc(C(=O)NCc3cccc4ccccc34)c(C3(c4ccc(Cl)cc4)CCCC3)n2)CC1 [Example 170, 5-pyrimidinecarboxamide, 4-[1-(4-chlorophenyl)cyclopentyl]-2-(4-methyl-1-piperidinyl)-N-(1-naphthalenylmethyl)-]
0.01 µM | CC1CCCN(c2ncc(C(=O)NCc3ccc(Cl)c(Cl)c3)c(C3(c4ccc(Cl)cc4)CCCC3)n2)C1 (stereo not drawn) [Example 174, 5-pyrimidinecarboxamide, 4-[1-(4-chlorophenyl)cyclopentyl]-N-[(3,4-dichlorophenyl)methyl]-2-(3-methyl-1-piperidinyl)-]
0.01 µM | CC1CCN(c2ncc(C(=O)NCc3ccc(Cl)c(Cl)c3)c(C3(c4ccc(Cl)cc4)CCCC3)n2)CC1 [Example 175, 5-pyrimidinecarboxamide, 4-[1-(4-chlorophenyl)cyclopentyl]-N-[(3,4-dichlorophenyl)methyl]-2-(4-methyl-1-piperidinyl)-]
0.01 µM | CC1CCCN(c2ncc(C(=O)NCc3ccc(Cl)cc3Cl)c(C3(c4ccc(Cl)cc4)CCCC3)n2)C1 (stereo not drawn) [Example 180, 5-pyrimidinecarboxamide, 4-[1-(4-chlorophenyl)cyclopentyl]-N-[(2,4-dichlorophenyl)methyl]-2-(3-methyl-1-piperidinyl)-]
0.01 µM | CCC(C)Nc1ncc(C(=O)NCc2ccc(Cl)cc2Cl)c(C2(c3ccc(Cl)cc3)CCCC2)n1 (stereo not drawn) [Example 183, 5-pyrimidinecarboxamide, 4-[1-(4-chlorophenyl)cyclopentyl]-N-[(2,4-dichlorophenyl)methyl]-2-[(1-methylpropyl)amino]-]
0.01 µM | O=C(NCc1ccc(Cl)cc1Cl)c1cnc(NC2CCCC2)nc1C1(c2ccc(Cl)cc2)CCCC1 [Example 185, 5-pyrimidinecarboxamide, 4-[1-(4-chlorophenyl)cyclopentyl]-2-(cyclopentylamino)-N-[(2,4-dichlorophenyl)methyl]-]
0.01 µM | CC1CCCN(c2ncc(C(=O)NCc3cc(F)cc(C(F)(F)F)c3)c(C3(c4ccc(Cl)cc4)CCCC3)n2)C1 (stereo not drawn) [Example 192, 5-pyrimidinecarboxamide, 4-[1-(4-chlorophenyl)cyclopentyl]-N-[[3-fluoro-5-(trifluoromethyl)phenyl]methyl]-2-(3-methyl-1-piperidinyl)-]
